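Grown in 96-well plates, cells were treated for 48 hours with each compound at five concentrations. Insufficient inhibition: endpoint recorded as highest concentration tested. The concentration for 50% growth inhibition is given as GI50.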 Activity calls are given as the source filed them. Rule as the data show it: active = GI50 up to about 1.1 µM and inactive = higher.
Experiments:
Test in all cases: NCI anticancer screen, dose series, 48 h
OVCAR-3 = system: OVCAR-3
MOLT-4 = system: MOLT-4
HT-29 = system: HT-29
NCI-H226 = system: NCI-H226
ACHN = system: ACHN
SK-MEL-28 = system: SK-MEL-28
NCI-H23 = system: NCI-H23
UO-31 = system: UO-31
Malme-3M = system: Malme-3M
SNB-19 = system: SNB-19
K562 = system: K562
SW-620 = system: SW-620
HCC 2998 = system: HCC 2998
COLO 205 = system: COLO 205
SF-295 = system: SF-295
LXFL 529 = system: LXFL 529
SK-MEL-2 = system: SK-MEL-2
BT-549 = system: BT-549
MDA-MB-435 = system: MDA-MB-435
PC-3 = system: PC-3

SMILES	GI50 (OVCAR-3)	GI50 (MOLT-4)	GI50 (HT-29)	GI50 (NCI-H226)	GI50 (ACHN)	GI50 (SK-MEL-28)	GI50 (NCI-H23)	GI50 (UO-31)	GI50 (Malme-3M)	GI50 (SNB-19)	GI50 (K562)	GI50 (SW-620)	GI50 (HCC 2998)	GI50 (COLO 205)	GI50 (SF-295)	GI50 (LXFL 529)	GI50 (SK-MEL-2)	GI50 (BT-549)	GI50 (MDA-MB-435)	GI50 (PC-3)
C(=C\c1c2oc(-c3ccccc3)cc(-c3ccccc3)c-2c2ccccc12)/C=C1\c2ccccc2-c2c(-c3ccccc3)cc(-c3ccccc3)[o+]c21.[O-][Cl+3]([O-])([O-])[O-]	> 100 µM (inactive)	> 100 µM (inactive)	> 100 µM (inactive)	> 100 µM (inactive)	> 100 µM (inactive)	> 100 µM (inactive)	> 100 µM (inactive)	> 100 µM (inactive)	> 100 µM (inactive)	> 100 µM (inactive)	> 100 µM (inactive)	> 100 µM (inactive)	> 100 µM (inactive)	> 100 µM (inactive)	> 100 µM (inactive)	> 100 µM (inactive)	> 100 µM (inactive)			
O=C1/C(=C/c2ccc(Cl)cc2)CCC1CNc1ccc(Cl)cc1 (configuration not stated)	7.18 µM (inactive)	2.29 µM (inactive)	3.67 µM (inactive)	28.4 µM (inactive)	1.57 µM (inactive)	15.6 µM (inactive)	10.3 µM (inactive)	5.35 µM (inactive)	18 µM (inactive)	14.7 µM (inactive)	0.249 µM (active)	2.03 µM (inactive)	6.01 µM (inactive)	2.46 µM (inactive)	6.79 µM (inactive)	0.711 µM (active)	29.2 µM (inactive)	24.3 µM (inactive)	15.1 µM (inactive)	10.5 µM (inactive)
C[N+](C)(C)CCc1ccccc1	> 100 µM (inactive)	> 100 µM (inactive)	> 100 µM (inactive)	> 100 µM (inactive)	> 100 µM (inactive)	> 100 µM (inactive)	> 100 µM (inactive)	> 100 µM (inactive)	> 100 µM (inactive)	> 100 µM (inactive)	> 100 µM (inactive)	> 100 µM (inactive)	> 100 µM (inactive)	> 100 µM (inactive)	> 100 µM (inactive)	> 100 µM (inactive)	> 100 µM (inactive)			
COc1cccc2c1C(=O)C=CC2=O	1.85 µM (inactive)	0.526 µM (active)	11 µM (inactive)	19.1 µM (inactive)	4.39 µM (inactive)	17.5 µM (inactive)	14.8 µM (inactive)	15.4 µM (inactive)	15.5 µM (inactive)	15.5 µM (inactive)	1.32 µM (inactive)	6.18 µM (inactive)	15.3 µM (inactive)	7.06 µM (inactive)	15.6 µM (inactive)	2.33 µM (inactive)	10.1 µM (inactive)	15.5 µM (inactive)	10.1 µM (inactive)	
C=C/C=C(\NC(=O)C(Cl)(Cl)Cl)[Si](C)(C)C	> 100 µM (inactive)	> 100 µM (inactive)	> 100 µM (inactive)	> 100 µM (inactive)	> 100 µM (inactive)	> 100 µM (inactive)	> 100 µM (inactive)	> 100 µM (inactive)	> 100 µM (inactive)	> 100 µM (inactive)	> 100 µM (inactive)	> 100 µM (inactive)	> 100 µM (inactive)	> 100 µM (inactive)	> 100 µM (inactive)	> 100 µM (inactive)	> 100 µM (inactive)			
COc1ccc2nc(NC(=O)C(=O)CC(=O)c3ccc([N+](=O)[O-])cc3)sc2c1	> 100 µM (inactive)	> 100 µM (inactive)	> 100 µM (inactive)	> 100 µM (inactive)	> 100 µM (inactive)	> 100 µM (inactive)	> 100 µM (inactive)	50.7 µM (inactive)	> 100 µM (inactive)	> 100 µM (inactive)	> 100 µM (inactive)	> 100 µM (inactive)	> 100 µM (inactive)	> 100 µM (inactive)		> 100 µM (inactive)	> 100 µM (inactive)			
CC[C@]1(O)C(=O)OCc2c1cc1n(c2=O)Cc2cc3c(N)cccc3nc2-1	> 100 µM (inactive)	> 100 µM (inactive)	> 100 µM (inactive)	> 100 µM (inactive)	> 100 µM (inactive)	> 100 µM (inactive)	> 100 µM (inactive)	> 100 µM (inactive)	> 100 µM (inactive)	> 100 µM (inactive)	> 100 µM (inactive)	> 100 µM (inactive)	> 100 µM (inactive)	> 100 µM (inactive)	> 100 µM (inactive)	> 100 µM (inactive)	> 100 µM (inactive)			
CN(C)C(=S)SN(C)C(=O)Nc1ccccc1	0.618 µM (active)	2.76 µM (inactive)	1.69 µM (inactive)	45.8 µM (inactive)	47.2 µM (inactive)	12.2 µM (inactive)	7.4 µM (inactive)	57.7 µM (inactive)	16.7 µM (inactive)	80.2 µM (inactive)	0.998 µM (active)	7.28 µM (inactive)	17.3 µM (inactive)	4.48 µM (inactive)	49.3 µM (inactive)	0.391 µM (active)	39.4 µM (inactive)	> 41.2 µM (inactive)	19.7 µM (inactive)	7.43 µM (inactive)
CN(C)C=C1C(=O)N(C)C(=O)N(C)C1=O	> 100 µM (inactive)	> 100 µM (inactive)	> 100 µM (inactive)	> 100 µM (inactive)	> 100 µM (inactive)	> 100 µM (inactive)	> 100 µM (inactive)	> 100 µM (inactive)	> 100 µM (inactive)	> 100 µM (inactive)	> 100 µM (inactive)	> 100 µM (inactive)	> 100 µM (inactive)		> 100 µM (inactive)	> 100 µM (inactive)	> 100 µM (inactive)			
Cc1ccc(S(=O)(=O)c2ccc(C)cc2[N+](=O)[O-])cc1	46.9 µM (inactive)	45.1 µM (inactive)	> 100 µM (inactive)	> 100 µM (inactive)	> 100 µM (inactive)	> 100 µM (inactive)	53.7 µM (inactive)	> 100 µM (inactive)	> 100 µM (inactive)	> 100 µM (inactive)	50.5 µM (inactive)	> 100 µM (inactive)	> 100 µM (inactive)	> 100 µM (inactive)	79.4 µM (inactive)	44.3 µM (inactive)	> 100 µM (inactive)			
O=C(/C=C/c1ccc(Cl)c(Cl)c1)c1ccc2ccccc2c1	> 100 µM (inactive)	48.9 µM (inactive)	> 100 µM (inactive)	70.5 µM (inactive)	> 100 µM (inactive)	> 100 µM (inactive)	> 100 µM (inactive)	> 100 µM (inactive)	> 100 µM (inactive)	> 100 µM (inactive)	> 100 µM (inactive)	> 100 µM (inactive)	> 100 µM (inactive)	13.6 µM (inactive)	> 100 µM (inactive)	> 100 µM (inactive)	> 100 µM (inactive)			
C[N+](C)(C)CC(=O)N/N=C(/C(=O)Nc1ccc(Br)cc1)C1C(=O)NC(=O)NC1=O	> 100 µM (inactive)	> 100 µM (inactive)	> 100 µM (inactive)	> 100 µM (inactive)	> 100 µM (inactive)	> 100 µM (inactive)	> 100 µM (inactive)	> 100 µM (inactive)	> 100 µM (inactive)	> 100 µM (inactive)	> 100 µM (inactive)	> 100 µM (inactive)	> 100 µM (inactive)	> 100 µM (inactive)	> 100 µM (inactive)	> 100 µM (inactive)	> 100 µM (inactive)			
O=C(CC(=O)n1nc(-c2ccccc2)c(/N=N/c2ccc([N+](=O)[O-])cc2)c1-c1ccccc1)Nc1ccc(Cl)cc1	16 µM (inactive)	24.1 µM (inactive)	12.5 µM (inactive)	22.4 µM (inactive)	2.07 µM (inactive)	17.9 µM (inactive)	27.2 µM (inactive)	11.9 µM (inactive)	19 µM (inactive)	26.4 µM (inactive)	4.19 µM (inactive)	21.6 µM (inactive)	20.8 µM (inactive)	18 µM (inactive)	40.6 µM (inactive)	8.73 µM (inactive)	34.8 µM (inactive)			
O=c1oc2ccccc2[n+]([O-])c1-c1ccccc1	> 100 µM (inactive)	> 100 µM (inactive)	> 100 µM (inactive)	> 100 µM (inactive)	> 100 µM (inactive)	> 100 µM (inactive)	> 100 µM (inactive)	> 100 µM (inactive)	> 100 µM (inactive)	> 100 µM (inactive)	> 100 µM (inactive)	> 100 µM (inactive)	> 100 µM (inactive)	> 100 µM (inactive)	> 100 µM (inactive)	> 100 µM (inactive)	> 100 µM (inactive)			
Cc1ccc(C(=O)O/N=C2/CCCC/C2=C\c2ccccc2)cc1	38.1 µM (inactive)		43.5 µM (inactive)	> 100 µM (inactive)	27.2 µM (inactive)	12.7 µM (inactive)	29.4 µM (inactive)	17.7 µM (inactive)	14.4 µM (inactive)	> 100 µM (inactive)	19.2 µM (inactive)	34 µM (inactive)	> 100 µM (inactive)	95.3 µM (inactive)	39.2 µM (inactive)	16.9 µM (inactive)	> 100 µM (inactive)			
C=C1C(=O)OC2C1C(OC(=O)/C(=C/C)COC(C)=O)CC1(CO1)C1C(OC(=O)/C(=C/C)CO)C=C(C)C21 (configuration not stated)	1.14 µM (inactive)	0.378 µM (active)	1.64 µM (inactive)	1.65 µM (inactive)	1.9 µM (inactive)	1.82 µM (inactive)	1.63 µM (inactive)	3.14 µM (inactive)	1.78 µM (inactive)	3.36 µM (inactive)	1.6 µM (inactive)	0.736 µM (active)	1.92 µM (inactive)	1.09 µM (active)	5.16 µM (inactive)	0.427 µM (active)	1.87 µM (inactive)			
